Experimental data reported in PMC8584424, “Synthesis of Novel 2-Thiouracil-5-Sulfonamide Derivatives as Potent Inducers of Cell Cycle Arrest and CDK2A Inhibition Supported by Molecular Docking” (International Journal of Molecular Sciences, 2021).

Legend:
CDK2/CyclinA2 = target: T1, CDK2/CyclinA2 (Homo sapiens, UniProt P24941); assay: In vitro inhibitory screening of CDK2 (CDK2 Assay kit, Kinase-Glo MAX); type: biochemical; conditions: CDK2/CyclinA2, 30 °C 45 min; mean of three experiments ± SD; read-out: CDK2 Protein Kinase (IC50 in µM)
T1 construct: purchased #79599
Method: To measure CDK2/CyclinA2 activity, the CDK2 Assay kit #79599 was used for screening and profiling applications, together with Kinase-Glo® MAX (Promega#V6071) as a detection reagent. […] Briefly, 25 μL of the master mixture containing 6 μL Kinase assay buffer + 1 μL ATP + 5 μL CDK substrate peptide + 13 μL distilled water were added to each well. Later, 5 µL of inhibitor buffer only or diluted compound were added to the blank or test inhibitor wells, respectively. Then, 20μL of Kinase assay buffer was added to blank wells. The reaction was started by the addition of 20 μL of CDK2/CyclinA2 enzyme to the wells of the test inhibitor. The final volume was 50 µL in all of the reactions. Incubation was at 30 °C for 45 min for all the enzymatic reactions. Finally, to each well, 50 μL of Kinase-Glo MAX reagent was added. The plate was incubated for 15 min at room temperature then, the luminescence signal was measured using a Bio Tek Synergy 2 microplate reader. Experiments were performed in triplicates.

[1] = tested on: MCF-7 (breast) cancer cells; assay: In vitro cytotoxicity assessment (MTT), MCF-7; type: cell-based, human; conditions: for IC50: Homo sapiens, MCF7, 48 h, MTT, mean of three experiments ± SD, NA: not active; for SI (selectivity index) MCF-7: IC50 in WI38 normal cells / IC50 in MCF-7
Excerpt: (§1) Four cancer cell lines were used in this study viz ovarian (A-2780), colon (HT-29), breast (MCF-7), and liver (HepG2) cancer cells. They were provided by the National Institute of Cancer, Cairo University (Cairo, Egypt). The selection of those cancer cells was encouraged by the stated anticancer activity of a number 5-Fluorouracil hybrids against the mentioned cancer cells and based on the reported cytotoxic activity of a large range of bioactive cores containing sulfonamide moiety.
(§2) Cells were seeded in 96 well plates at a density of 2 × 10^4 and incubated to allow the attachment for 24 h. Then the cells were treated at different concentrations (2.5–10 μM) with 5-FU as a positive control or the synthesized compounds for 48h. 0.1% DMSO was used as a negative control. Afterward, cells were washed using PBS and the viability of cells was evaluated utilizing in vitro toxicology assay kit, MTT Based (Stock No. TOX-1, Sigma-Aldrich, Saint Louis, Missouri, USA), per the manufacturer’s instructions. The plates were read at 570 nm. IC50 was calculated using a sigmoidal dose-response curve (GraphPad Prism version 5 for Windows (GraphPad Inc., USA)). Data are presented as the mean of the three individual experiments. The degree of selectivity of the active target compounds relative to WI38 normal cell lines is expressed as previously described. Selectivity index (SI) = IC50 of a pure compound in a normal cell line/IC50 of the same pure compound in a cancerous cell line.

[2] = tested on: HepG2 (liver) cancer cells; assay: In vitro cytotoxicity assessment (MTT), HepG2; type: cell-based, human; conditions: for IC50: Homo sapiens, HepG2, 48 h, MTT, mean of three experiments ± SD, NA: not active; for SI (selectivity index) HepG2: IC50 in WI38 normal cells / IC50 in HepG2
Excerpt: as §1, §2

[3] = tested on: A-2780 (ovarian) cancer cells; assay: In vitro cytotoxicity assessment (MTT), A-2780; type: cell-based, human; conditions: for IC50: Homo sapiens, A2780, 48 h, MTT, mean of three experiments ± SD, NA: not active; for SI (selectivity index) A-2780: IC50 in WI38 normal cells / IC50 in A-2780
Excerpt: as §1, §2

[4] = tested on: HT-29 (colon) cancer cells; assay: In vitro cytotoxicity assessment (MTT), HT-29; type: cell-based, human; conditions: for IC50: Homo sapiens, HT-29, 48 h, MTT, mean of three experiments ± SD, NA: not active; for SI (selectivity index) HT-29: IC50 in WI38 normal cells / IC50 in HT-29
Excerpt: as §1, §2

WI38 normal cells = assay: In vitro cytotoxicity assessment (MTT), normal cells; type: cell-based; conditions: WI-38; normal human cell line WI38, MTT
Method: as §2, with “Then the cells were treated at different concentrations (2.5–10 μM) with 5-FU as a positive control or the synthesized compounds for 48h.” left out

Structure (SMILES)	IC50 (CDK2/CyclinA2)	IC50 [1]	SI (selectivity index) MCF-7 [1]	IC50 [2]	SI (selectivity index) HepG2 [2]	IC50 [3]	SI (selectivity index) A-2780 [3]	IC50 [4]	SI (selectivity index) HT-29 [4]	IC50 (WI38 normal cells)	melting point
Cc1[nH]c(=S)[nH]c(=O)c1S(=O)(=O)Nc1cccc(C(=O)C=Cc2ccc(Br)cc2)c1 [Compound 7c, N-(3-(3-(4-Bromophenyl)acryloyl)phenyl)-6-Methyl-4-Oxo-2-Thioxo-1,2,3,4-Tetrahydro Pyrimidine-5-Sulfonamide]	8.2 ± 0.486 µM	11.7 ± 2.07 µM	5.38	8.25 ± 0.68 µM	7.60	6.1 ± 0.54 µM	10.28	8.14 ± 1.95 µM	7.71	62.7 ± 1.93 µM	335 to 337 °C
Cc1ccc(NS(=O)(=O)c2c(C)[nH]c(=S)[nH]c2=O)cc1 [Compound 6c, 6-Methyl-4-Oxo-2-Thioxo-N-(P-Tolyl)-1,2,3,4-Tetrahydropyrimidine-5-Sulfonamide]		6.36 ± 1.2 µM	13.27	6.71 ± 0.99 µM	12.58	14 ± 1.05 µM	6.02	5.46 ± 1.66 µM	15.46	84.4 ± 1.7 µM	313 to 315 °C
Cc1[nH]c(=S)[nH]c(=O)c1S(=O)(=O)Nc1cccc(C(=O)C=Cc2ccc(Cl)cc2)c1 [Compound 7a, N-(3-(3-(4-Chlorophenyl)acryloyl)phenyl)-6-Methyl-4-Oxo-2-Thioxo-1,2,3,4-Tetrahydro Pyrimidine-5-Sulfonamide]	6.41 ± 0.377 µM	6.9 ± 1.33 µM	12.04	10.9 ± 1.72 µM	7.61	12.5 ± 2.1 µM	6.66	4.2 ± 0.88 µM	19.78	83.1 ± 2 µM	315 to 317 °C
COc1ccc(NS(=O)(=O)c2c(C)[nH]c(=S)[nH]c2=O)cc1 [Compound 6b, N-(4-Methoxyphenyl)-6-Methyl-4-Oxo-2-Thioxo-1,2,3,4-Tetrahydropyrimidine-5-Sulfon-Amide]	0.447 ± 0.031 µM	2.29 ± 0.63 µM	31.29	2.23 ± 0.55 µM	32.13	2.56 ± 0.45 µM	28.00	5.1 ± 1.32 µM	14.05	71.7 ± 2 µM	320 to 322 °C
Cc1[nH]c(=S)[nH]c(=O)c1S(=O)(=O)Nc1ccc(Br)cc1 [Compound 6g, N-(4-Bromophenyl)-6-Methyl-4-Oxo-2-Thioxo-1,2,3,4-Tetrahydropyrimidine-5-Sulfonamide]	0.485 ± 0.033 µM	7.31 ± 1.21 µM	9.65	2.47 ± 0.51 µM		1.62 ± 0.35 µM	43.58	5.05 ± 0.83 µM	13.98	70.6 ± 2.14 µM	333 to 335 °C
Cc1[nH]c(=S)[nH]c(=O)c1S(=O)(=O)Nc1cccc(C(=O)C=Cc2ccc([N+](=O)[O-])cc2)c1 [Compound 7b, 6-Methyl-N-(3-(3-(4-Nitrophenyl)acryloyl)phenyl)-4-Oxo-2-Thioxo-1,2,3,4-Tetrahydropyrimidine-5-Sulfonamide]	0.81 ± 0.026 µM	6.11 ± 0.5 µM	13.08	12.4 ± 1.82 µM	6.43	11.1 ± 1.41 µM	7.22	2.84 ± 0.78 µM	28.14	79.9 ± 2.56 µM	318 to 320 °C
Cc1[nH]c(=S)[nH]c(=O)c1S(=O)(=O)Nc1ccccc1 [Compound 6a, 6-Methyl-4-Oxo-N-Phenyl-2-Thioxo-1,2,3,4-Tetrahydropyrimidine-5-Sulfonamide]		16.8 ± 2.11 µM		15.6 ± 1.52 µM		17.7 ± 2.18 µM		11.3 ± 2.08 µM			316 to 318 °C
Cc1[nH]c(=S)[nH]c(=O)c1S(=O)(=O)NNC(=O)c1ccc(Cl)cc1 [Compound 9a, N′-(4-Chlorobenzoyl)-6-Methyl-4-Oxo-2-Thioxo-1,2,3,4-Tetrahydropyrimidine-5-Sulfono-Hydrazide]		10.8 ± 1.53 µM		11 ± 1.23 µM		11.9 ± 3.47 µM		6.64 ± 1.19 µM			327 to 329 °C
Cc1[nH]c(=S)[nH]c(=O)c1S(=O)(=O)NNc1ccc([N+](=O)[O-])cc1[N+](=O)[O-] [Compound 8c, N′-(2,4-Dinitrophenyl)-6-Methyl-4-Oxo-2-Thioxo-1,2,3,4-Tetrahydropyrimidine-5-Sulfono Hydrazide]		5.54 ± 1.58 µM		14.8 ± 1.45 µM		8.57 ± 1.79 µM		10.1 ± 1.54 µM			321 to 323 °C
Cc1[nH]c(=S)[nH]c(=O)c1S(=O)(=O)NNC(=O)c1ccccc1Cl [Compound 9b, N′-(2-Chlorobenzoyl)-6-Methyl-4-Oxo-2-Thioxo-1,2,3,4-Tetrahydropyrimidine-5-Sulfono-Hydrazide]		13.6 ± 2.65 µM		13.3 ± 1.5 µM		7.95 ± 1.75 µM		10.6 ± 1.25 µM			334 to 336 °C
O=c1[nH]cc(F)c(=O)[nH]1 [Compound 5-FU, 5-fluorouracil, reference compound]		5.15 ± 1.14 µM		38.4 ± 2.4 µM		3.92 ± 1 µM		4.69 ± 1.13 µM			
Cc1[nH]c(=S)[nH]c(=O)c1S(=O)(=O)NNC(=O)c1ccc(Br)cc1 [Compound 9c, N′-(4-Bromobenzoyl)-6-Methyl-4-Oxo-2-Thioxo-1,2,3,4-Tetrahydropyrimidine-5-Sulfono-Hydrazide]		11.9 ± 2 µM		9.44 ± 1.03 µM		8.16 ± 2.07 µM		6.99 ± 1.35 µM			339 to 341 °C
Cc1[nH]c(=S)[nH]c(=O)c1S(=O)(=O)NNc1ccccc1 [Compound 8b, 6-Methyl-4-Oxo-N′-Phenyl-2-Thioxo-1,2,3,4-Tetrahydropyrimidine-5-Sulfonohydrazide]		9.89 ± 1.8 µM		13.1 ± 2.04 µM		16.4 ± 1.55 µM		8.16 ± 2.07 µM			
Cc1[nH]c(=S)[nH]c(=O)c1S(=O)(=O)Nc1ccc([N+](=O)[O-])cc1 [Compound 6f, 6-Methyl-N-(4-Nitrophenyl)-4-Oxo-2-Thioxo-1,2,3,4-Tetrahydropyrimidine-5-Sulfonamide]	0.605 ± 0.023 µM	2.34 ± 0.61 µM		6.1 ± 0.48 µM		10.2 ± 0.97 µM		6.4 ± 1.24 µM		65.7 ± 2.28 µM	
CC(=O)c1cccc(NS(=O)(=O)c2c(C)[nH]c(=S)[nH]c2=O)c1 [Compound 6d, N-(3-Acetylphenyl)-6-Methyl-4-Oxo-2-Thioxo-1,2,3,4-Tetrahydropyrimidine-5-Sulfonamide]	0.567 ± 0.021 µM	2.3 ± 0.62 µM	32.33	5.24 ± 1.05 µM		11.7 ± 1.99 µM	6.37	6.13 ± 0.53 µM	12.13	74.4 ± 4.74 µM	318 to 320 °C
Cc1[nH]c(=S)[nH]c(=O)c1S(=O)(=O)NNC(N)=S [Compound 8a, [(6-Methyl-4-Oxo-2-Thioxo-1,2,3,4-Tetrahydropyrimidin-5-Yl) Sulfonylamino] Thiourea]		13.3 ± 3 µM		18 ± 1.95 µM		16.8 ± 1.82 µM		8.02 ± 1.99 µM			343 to 345 °C
